ChEMBL document CHEMBL1138671, “Structure-based design, synthesis, and evaluation of conformationally constrained mimetics of the second mitochondria-derived activator of caspase that target the X-linked inhibitor of apoptosis protein/caspase-9 interaction site” (J Med Chem, 2004)

Biological target: E3 ubiquitin-protein ligase XIAP (Homo sapiens, UniProt P98170)
Test: Binding affinity for the recombinant XIAP BIR3 protein in displacing a fluorescently labeled Smac peptide

E3 ubiquitin-protein ligase XIAP, sequence (P98170 whole entry): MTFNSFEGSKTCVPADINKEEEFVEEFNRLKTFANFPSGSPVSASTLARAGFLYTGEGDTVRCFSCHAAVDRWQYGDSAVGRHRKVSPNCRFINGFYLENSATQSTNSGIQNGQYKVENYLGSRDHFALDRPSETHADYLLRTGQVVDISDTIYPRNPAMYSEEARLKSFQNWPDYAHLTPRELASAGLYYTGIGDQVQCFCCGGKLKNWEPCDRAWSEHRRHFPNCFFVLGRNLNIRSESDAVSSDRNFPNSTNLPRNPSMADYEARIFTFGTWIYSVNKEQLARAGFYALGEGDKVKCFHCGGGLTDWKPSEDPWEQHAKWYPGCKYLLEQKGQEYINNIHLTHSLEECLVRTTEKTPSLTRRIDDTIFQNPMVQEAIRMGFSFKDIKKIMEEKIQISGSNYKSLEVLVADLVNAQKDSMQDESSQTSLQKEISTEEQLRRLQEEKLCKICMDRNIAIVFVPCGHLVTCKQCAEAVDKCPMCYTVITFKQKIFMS

Row | SMILES | Ki
1 | CCC[C@H](N)C(=O)NC1CC[C@H]2CC[C@@H](C(=O)NCc3ccccc3)N2C1=O (some centres not stated) | > 100 µM
2 | C[C@H](N)C(=O)NC1CC[C@H]2CC[C@@H](C(=O)Nc3ccccc3)N2C1=O (some centres not stated) | > 100 µM
